The text below walks through data of US20230194505A1, “DETERMINING DRUG EFFECTS USING COMBINATION OF MEASUREMENTS” (Organos, Inc., priority 2020, published 2023).

For test [1], the system named is human cardiomyocytes. Particulars: cited from earlier work.
Test [2] concerns zebrafish cardiomyocytes. Particulars: 1 μM, data from Nemtsas et al. 2010; cited from earlier work.
The test system of test [3] is hiPSC-CMs. Briefly: Conduction velocity computed from measurements of the extracellular potential in a collection of hiPSC-CMs. Type of test: cell-based, human. Particulars: doses 1-10 μM. Here is the method: From the U data 430, we include the value at each time point and each electrode (see (14)), and the conduction velocity is computed using the time points in which U crosses 0 mV after the peak in different electrodes (see (15) and FIG. 1). Given that U is measured at each electrode, another metric can be the time tcv for the U data 430 to go back to zero. Another metric uses the measurements at each of the time points (shown as separate dots 432; a sum of the square of the differences (or absolute value) between the model output and measured values can be summed.
where cv denotes the conduction velocity (in cm/s) computed from U recorded in the electrodes. More specifically, the conduction velocity is computed as the distance between the center of the two electrodes marked as a and b in FIG. 1 divided by the time between U crosses 0 mV after the peak in these two electrodes (see FIG. 4). The two electrodes used could be any two electrodes in the simulation.
One of the advantages of including measurements of the extracellular potential in addition to optical measurements of V and Ca in the inversion procedure is that the extracellular measurements can be used to estimate the conduction velocity of the cell collection. This information could be useful for determining drug effects on the INa current (see FIG. 6). […]

Test [4] deals with dog cardiomyocytes. Particulars: 50 nM, paced at 1 Hz, data from Jost et al. 2013; cited from earlier work.
For test [5], the system named is rabbit ventricular myocyte. Particulars: data from Baczkó et al. 2016, cited from earlier work.
Setting [6] is: 1 μM, data from Bussek et al. (B).
Setting [7] is: 1 μM, data from Jost et al. 2005 (J).
Where [8] appears, read: 50 nM, paced at 1 Hz, data from Jost et al. 2013.
Where [9] appears, read: 30 μM, data from Baczkó et al. 2016 (B).
[10] abbreviates: 30 μM, data from Orvos et al. 2019 (O).

Each structure is given as a SMILES string. Read-outs that look alike come from different tables or passages of the source.

`Cc1cccc(CCN2CCC(C(=O)c3ccc(NS(C)(=O)=O)cc3)CC2)n1` [E-4031]: in test [1] (setting [6]), the “APD50, Human, drug measured (B) (change vs control)” value was “+27.7%” and the “APD90, Human, drug measured (B) (change vs control)” value was “+31.2%”. Further, in test [1] (setting [7]), the “APD50, Human drug measured (J) (change vs control)” value is reported as “+54.2%” and the “APD90, Human drug measured (J) (change vs control)” value is on record as “+65.1%”. In test [2], the “APD50, Zebrafish drug measured (change vs control)” value is “+38.7%” and the “APD90, Zebrafish drug measured (change vs control)” value is “+24.1%”.
With `O=C(NCC1CCCCN1)c1cc(OCC(F)(F)F)ccc1OCC(F)(F)F` (stereo not drawn) [Flecainide], the “Effect of increasing drug dose on conduction velocity” value in test [3] is on record as “the conduction velocity is decreased”.
`CN(CCOc1ccc(NS(C)(=O)=O)cc1)CCc1ccc(NS(C)(=O)=O)cc1` [dofetilide]: the “APD50, Dog, drug measured (change vs control)” value in test [4] is on record as “+17.5%”. In test [1] (setting [8]), the “APD50, Human, drug measured (change vs control)” value was “+33.3%” and the “APD90, Human, drug measured (change vs control)” value is “+44.3%”.
Consider `CC(C)NCC(O)c1ccc(NS(C)(=O)=O)cc1` (stereo not drawn) [sotalol], for which, in test [1] (setting [9]), the “APD50, Human, drug measured (B) (change vs control)” value is reported as “+32.3%” and the “APD90, Human, drug measured (B) (change vs control)” value is listed as “+37.5%”. Also, in test [1] (setting [10]), the “APD50, Human, drug measured (O) (change vs control)” value is listed as “+20.6%” and the “APD90, Human, drug measured (O) (change vs control)” value is “+28.2%”. In test [5] (10 μM), the “APD50, Rabbit, drug measured (change vs control)” value was “+21.2%” and the “APD90, Rabbit, drug measured (change vs control)” value was “+19.6%”. Also, in test [5] (52 μM), the “APD50, Rabbit, drug measured (change vs control)” value is “+54.3%” and the “APD90, Rabbit, drug measured (change vs control)” value is listed as “+54.1%”.
